Measured values taken from patent US12252524B2, “GIP/GLP1 co-agonist compounds” (Eli Lilly and Company, priority 2018, dated 2025).
Numbered stars: 1 amine (or outer) side, 2 acyl side, 3 side chain; on linkers, the order of the positions; unused ones are H or OH. Square brackets hold non-standard residues; d marks the D form. Side chains are listed from the residue outwards. Peptide text beside a SMILES is read from it. * marks the point of attachment. C20 diacid = O=C(O)CCCCCCCCCCCCCCCCCCC(=O)*; C18 diacid = O=C(O)CCCCCCCCCCCCCCCCC(=O)*; γGlu = O=C(O)[C@H](CCC(=O)[*:2])N[*:1]; αMeL = CC(C)C[C@](C)(N)C(=O)O; Orn = NCCC[C@H](N)C(=O)O; AEEA = NCCOCCOCC(=O)O; Aib = CC(C)(N)C(=O)O

How the values were obtained:
[1] = biological target: T1, human Gcg receptor (Homo sapiens, UniProt P47871); assay: [125I]-Glucagon binding (SPA), human Gcg receptor; settings: read-out: hGLcgR Ki, nM (SEM, n)
T1 construct: expressed in transfected cells; crude membranes
T1 sequence (P47871 26-477): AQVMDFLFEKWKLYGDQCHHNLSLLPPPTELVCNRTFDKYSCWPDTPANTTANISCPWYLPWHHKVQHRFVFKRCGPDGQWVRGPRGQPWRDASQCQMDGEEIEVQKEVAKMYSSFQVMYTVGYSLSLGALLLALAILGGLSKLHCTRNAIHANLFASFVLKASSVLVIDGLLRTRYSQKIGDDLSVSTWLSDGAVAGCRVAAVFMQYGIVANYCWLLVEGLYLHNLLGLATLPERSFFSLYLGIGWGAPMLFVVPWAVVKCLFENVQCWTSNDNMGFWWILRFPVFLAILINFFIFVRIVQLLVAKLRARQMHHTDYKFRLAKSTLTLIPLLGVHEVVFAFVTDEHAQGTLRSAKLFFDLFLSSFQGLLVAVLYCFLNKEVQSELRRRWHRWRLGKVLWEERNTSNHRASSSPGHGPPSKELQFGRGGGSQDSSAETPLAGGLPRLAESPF
Summary of the method: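 Cell pellets were lysed in hypotonic Tris buffer, pH 7.5, homogenized, and spun at low then high speed to give crude membranes. Ki was derived from the fitted IC50.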

[2] = biological target: T2, human GIP receptor (Homo sapiens, UniProt P48546); assay: [125I]-GIP binding (SPA), human GIP receptor; settings: read-out: hGIPR Ki, nM (SEM, n)
T2 construct: expressed in transfected cells; crude membranes
T2 sequence (P48546 22-466): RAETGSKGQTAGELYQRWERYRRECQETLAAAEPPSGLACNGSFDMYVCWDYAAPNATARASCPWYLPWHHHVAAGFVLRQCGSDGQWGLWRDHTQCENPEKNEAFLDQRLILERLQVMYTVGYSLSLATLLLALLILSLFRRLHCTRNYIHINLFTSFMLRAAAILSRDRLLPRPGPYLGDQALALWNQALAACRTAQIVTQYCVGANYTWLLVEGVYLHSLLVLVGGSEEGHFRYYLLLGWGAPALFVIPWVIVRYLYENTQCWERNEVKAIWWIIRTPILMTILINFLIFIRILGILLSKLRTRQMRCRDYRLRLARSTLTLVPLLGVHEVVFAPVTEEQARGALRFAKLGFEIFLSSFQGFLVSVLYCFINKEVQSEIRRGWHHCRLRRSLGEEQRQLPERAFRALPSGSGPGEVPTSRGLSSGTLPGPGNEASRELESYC

[3] = biological target: human GLP-1 receptor (GLP-1R) (Homo sapiens, UniProt P43220); assay: cAMP pharmacological functional assay in presence of casein, hGLP-1R; assay type: cell-based; settings: HEK293 cells expressing hGLP-1R, 0.1% Casein, geometric mean; read-out: hGLP1R cAMP Rel EC50 nM (SEM, n)
human GLP-1 receptor (GLP-1R), sequence (P43220 24-463): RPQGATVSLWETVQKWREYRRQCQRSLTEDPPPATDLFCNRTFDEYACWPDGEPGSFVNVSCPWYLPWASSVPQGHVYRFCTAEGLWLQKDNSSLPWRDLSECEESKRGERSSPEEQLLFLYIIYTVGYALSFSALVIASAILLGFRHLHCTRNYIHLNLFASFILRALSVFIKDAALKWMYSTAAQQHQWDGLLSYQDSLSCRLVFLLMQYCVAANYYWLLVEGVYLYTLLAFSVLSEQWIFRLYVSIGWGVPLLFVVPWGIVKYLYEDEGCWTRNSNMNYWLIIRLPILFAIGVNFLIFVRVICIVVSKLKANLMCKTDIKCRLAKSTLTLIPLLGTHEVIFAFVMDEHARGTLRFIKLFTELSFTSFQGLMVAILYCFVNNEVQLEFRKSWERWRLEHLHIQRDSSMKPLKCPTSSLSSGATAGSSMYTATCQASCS

[4] = biological target: T3, gastric inhibitory peptide receptor (GIPR) (Homo sapiens, UniProt P48546); assay: cAMP pharmacological functional assay in presence of casein, hGIPR; assay type: cell-based; settings: HEK293 cells expressing hGIPR, 0.1% Casein, geometric mean; read-out: hGIPR cAMP Rel EC50 nM (SEM, n)
T3 sequence (P48546 22-466): T2 sequence (P48546 22-466)

[5] = biological target: T4, human GLP-1R (Homo sapiens, UniProt P43220); assay: [125I]-GLP-1 binding (SPA), human GLP-1 receptor; set-up: expressed in transfected cells; crude membranes; settings: read-out: hGLP1R Ki, (nM) (SEM, n)
T4 sequence (P43220 24-463): as above
Summary of the method: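 Membranes: hypotonic lysis (50 mM Tris HCl, pH 7.5, protease inhibitors), Potter-Elvehjem homogenization, high-speed pellet (35000×g 1 h or 25000×g 30 min, 4° C.). Buffer: 25 mM HEPES pH 7.4, 2.5 mM CaCl2, 1 mM MgCl2. Four-parameter IC50 fit; Ki as geometric mean ± SEM.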

[6] = biological target: T4, human GLP-1R; assay: GLP-1R HEK293 cell membrane [35S]GTPγS binding assay; assay type: biochemical; set-up: expressed in transfected cells; host or cells: HEK293 cells expressing human GLP-1R; membranes; settings: HEK293 cell membranes expressing human GLP-1R, [35S]GTPγS binding; read-out: hGLP1R GTPgS Rel EC50 nM (SEM, n)
Procedure: The GLP-1 receptor is a G-protein coupled receptor that increases GTP-bound Gas upon ligand induced receptor activation. The potency of peptides to stimulate-GLP-1R induced activation of Gac is determined using preparations of purified membranes from HEK293 cells expressing the human GLP-1R. […] The test peptides are solubilized in DMSO and diluted in reaction buffer containing 5 μg of membrane in 20 mM HEPES pH 7.4, 50 mM NaCl, 5 mM MgCl2, 40 μg/ml saponin, 0.1% BSA, and […] ^35S-labeled GTPTS for 30 minutes at room temperature. Reactions are terminated by addition of 0.2% Nonidet β-40 detergent containing rabbit anti-Gas polyclonal antibody and 0.5 mg of anti-rabbit polyvinyltoluene beads. Mixtures are developed for 30 minutes, centrifuged at 80×g for 10 minutes, and counted for 1 minute/well using a MicroBeta TriLux instrument. Peptide concentration-response curves are fit to a four-parameter logistic model to calculate potency as an EC50.

[7] = biological target: T4, human GLP-1R; assay: GLP-1R CHO cell β-arrestin recruitment assay; assay type: cell-based; set-up: host or cells: CHO-K1 PathHunter cells, assay-ready frozen; settings: CHO-K1 cells
Text: Activated G-protein coupled receptors can interact with the β-arrestin family of signalling proteins. […] CHO-K1 cells expressing Pro-Link-tagged Human GLP-1R and enzyme-acceptor-tagged β-arrestin-2 may be obtained from DiscoveRx and prepared as assay-ready frozen cells. Test peptides are solubilized in DMSO and serial dilutions are perfomed using the Echo acoustic dispenser (LabCyte). Assay media is the PathHunter Cell Assay Buffer (DiscoveRx) containing 0.1% w/v hydrolyzed Casein (Sigma). […] Plates are incubated for 90 minutes in a 37′C/5% C02 incubator and 10 ul of PathHunter detection reagent is added (DiscoveRx) and plates are incubated at room temperature for 60 minutes. Luminescence signal is measured. Peptide concentration-response curves fit to a four-parameter logistic model to calculate potency as an EC50.

[8] = 0.1% w/v hydrolyzed Casein, read-out: hGLP1R B-Arrestin2 Rel EC50
[9] = PathHunter β-arrestin-2 recruitment, 0.1% casein, read-out: hGLP1R B-Arrestin2 Rel EC50 uM (SEM, n)

| Compound | Ki [1] [nM] | Ki [2] [nM] | EC50 [3] [nM] | EC50 [4] [nM] | Ki [5] [nM] | EC50 [6] [nM] | EC50 [7, 8] [µM] | EC50 [7, 9] [µM] |
| --- | --- | --- | --- | --- | --- | --- | --- | --- |
| CC[C@H](C)[C@H](NC(=O)[C@H](CC(C)C)NC(=O)[C@H](Cc1ccc(O)cc1)NC(=O)[C@H](CCC(=O)O)NC(=O)[C@@H](NC(=O)[C@H](Cc1ccccc1)NC(=O)[C@H](C)NC(=O)C(C)(C)NC(=O)[C@H](CCC(N)=O)NC(=O)[C@H](C)NC(=O)[C@H](CCCCNC(=O)COCCOCCNC(=O)COCCOCCNC(=O)CC[C@H](NC(=O)CCCCCCCCCCCCCCCCC(=O)O)C(=O)O)NC(=O)[C@H](CCCCN)NC(=O)[C@H](CC(=O)O)NC(=O)[C@H](CC(C)C)NC(=O)[C@H](CC(C)C)NC(=O)[C@@H](NC(=O)[C@H](CO)NC(=O)[C@H](Cc1ccc(O)cc1)NC(=O)[C@H](CC(=O)O)NC(=O)[C@H](CO)NC(=O)[C@@H](NC(=O)[C@H](Cc1ccccc1)NC(=O)[C@@H](NC(=O)CNC(=O)[C@H](CCC(=O)O)NC(=O)C(C)(C)NC(=O)[C@@H](N)Cc1ccc(O)cc1)[C@@H](C)O)[C@@H](C)O)[C@@H](C)CC)C(C)C)C(=O)N[C@@H](CCC(=O)O)C(=O)NCC(=O)NCC(=O)N1CCC[C@H]1C(=O)N[C@@H](CO)C(=O)N[C@@H](CO)C(=O)NCC(N)=O [Example 298] (H-Y[Aib]EGTFTSDYSILLDKK([AEEA-AEEA-γGlu-C18 diacid])AQ[Aib]AFVEYLIEGGPSSG-NH2; N-terminus assumed) | > 1370 | 0.0578 | 0.0957 | 0.043 | 3.03 | 1.03 | – | – |
| CC[C@H](C)[C@H](NC(=O)[C@H](CC(C)C)NC(=O)[C@H](Cc1ccc(O)cc1)NC(=O)[C@H](CCC(=O)O)NC(=O)[C@@H](NC(=O)[C@H](Cc1ccccc1)NC(=O)[C@H](CCC(=O)O)NC(=O)C(C)(C)NC(=O)[C@H](CCC(N)=O)NC(=O)[C@H](C)NC(=O)[C@H](CCCCNC(=O)COCCOCCNC(=O)COCCOCCNC(=O)CC[C@H](NC(=O)CCCCCCCCCCCCCCCCC(=O)O)C(=O)O)NC(=O)[C@H](CCCCN)NC(=O)[C@H](CC(=O)O)NC(=O)[C@H](CC(C)C)NC(=O)[C@](C)(CC(C)C)NC(=O)[C@@H](NC(=O)[C@H](CO)NC(=O)[C@H](Cc1ccc(O)cc1)NC(=O)[C@H](CC(=O)O)NC(=O)[C@H](CO)NC(=O)[C@@H](NC(=O)[C@H](Cc1ccccc1)NC(=O)[C@@H](NC(=O)CNC(=O)[C@H](CCC(=O)O)NC(=O)C(C)(C)NC(=O)[C@@H](N)Cc1ccc(O)cc1)[C@@H](C)O)[C@@H](C)O)[C@@H](C)CC)[C@@H](C)CC)C(=O)N[C@@H](CCC(=O)O)C(=O)NCC(=O)NCC(=O)N1CCC[C@H]1C(=O)N[C@@H](CO)C(=O)N[C@@H](CO)C(=O)NCC(N)=O [Example 304] (H-Y[Aib]EGTFTSDYSI[αMeL]LDKK([AEEA-AEEA-γGlu-C18 diacid])AQ[Aib]EFIEYLIEGGPSSG-NH2) | > 855 | 0.0499 | 0.191 | 0.0296 | 4.44 | 0.561 | – | – |
| CC[C@H](C)[C@H](NC(=O)[C@H](CC(C)C)NC(=O)[C@H](Cc1ccc(O)cc1)NC(=O)[C@@H](CCC(=O)O)NC(=O)[C@@H](NC(=O)[C@H](Cc1ccccc1)NC(=O)[C@H](C)NC(=O)C(C)(C)NC(=O)[C@H](CCC(N)=O)NC(=O)[C@H](C)NC(=O)[C@H](CCCCNC(=O)COCCOCCNC(=O)COCCOCCNC(=O)CC[C@H](NC(=O)CCCCCCCCCCCCCCCCCCC(=O)O)C(=O)O)NC(=O)[C@H](CCCN)NC(=O)[C@H](CC(=O)O)NC(=O)[C@H](CC(C)C)NC(=O)[C@](C)(CC(C)C)NC(=O)[C@@H](NC(=O)[C@H](CO)NC(=O)[C@H](Cc1ccc(O)cc1)NC(=O)[C@H](CC(=O)O)NC(=O)[C@H](CO)NC(=O)[C@@H](NC(=O)[C@H](Cc1ccccc1)NC(=O)[C@@H](NC(=O)CNC(=O)[C@H](CCC(=O)O)NC(=O)C(C)(C)NC(=O)[C@H](N)Cc1ccc(O)cc1)[C@@H](C)O)[C@@H](C)O)[C@@H](C)CC)C(C)C)C(=O)N[C@@H](C)C(=O)NCC(=O)NCC(=O)N1CCC[C@H]1C(=O)N[C@@H](CO)C(=O)N[C@@H](CO)C(=O)NCC(=O)N[C@@H](C)C(=O)N1CCC[C@H]1C(=O)N1CCC[C@H]1C(=O)N1CCC[C@H]1C(=O)N[C@@H](CO)C(N)=O [Example 362] (H-[dY][Aib]EGTFTSDYSI[αMeL]LD[Orn]K([AEEA-AEEA-γGlu-C20 diacid])AQ[Aib]AFV[dE]YLIAGGPSSGAPPPS-NH2) | > 1050 | 0.337 | 0.365 | 0.302 | 6.95 | – | > 11 | > 11 |
| CC[C@H](C)[C@H](NC(=O)[C@H](CC(C)C)NC(=O)[C@H](Cc1ccc(O)cc1)NC(=O)[C@@H](CCC(=O)O)NC(=O)[C@@H](NC(=O)[C@H](Cc1ccccc1)NC(=O)[C@H](C)NC(=O)C(C)(C)NC(=O)[C@H](CCC(N)=O)NC(=O)[C@H](C)NC(=O)[C@H](CCCCNC(=O)COCCOCCNC(=O)COCCOCCNC(=O)CC[C@H](NC(=O)CCCCCCCCCCCCCCCCC(=O)O)C(=O)O)NC(=O)[C@H](CCCN)NC(=O)[C@H](CC(=O)O)NC(=O)[C@H](CC(C)C)NC(=O)[C@](C)(CC(C)C)NC(=O)[C@@H](NC(=O)[C@H](CO)NC(=O)[C@H](Cc1ccc(O)cc1)NC(=O)[C@H](CC(=O)O)NC(=O)[C@H](CO)NC(=O)[C@@H](NC(=O)[C@H](Cc1ccccc1)NC(=O)[C@@H](NC(=O)CNC(=O)[C@H](CCC(=O)O)NC(=O)C(C)(C)NC(=O)[C@H](N)Cc1ccc(O)cc1)[C@@H](C)O)[C@@H](C)O)[C@@H](C)CC)C(C)C)C(=O)N[C@@H](C)C(=O)NCC(=O)NCC(=O)N1CCC[C@H]1C(=O)N[C@@H](CO)C(=O)N[C@@H](CO)C(=O)NCC(=O)N[C@@H](C)C(=O)N1CCC[C@H]1C(=O)N1CCC[C@H]1C(=O)N1CCC[C@H]1C(=O)N[C@@H](CO)C(N)=O [Example 364] (H-[dY][Aib]EGTFTSDYSI[αMeL]LD[Orn]K([AEEA-AEEA-γGlu-C18 diacid])AQ[Aib]AFV[dE]YLIAGGPSSGAPPPS-NH2) | > 1150 | 0.672 | 1 | 0.351 | 17.2 | – | > 12 | > 12 |
